Here are results for 14 molecules from patent US20040043043A1, “Preparation of emulsions and concentrates thereof” (priority 2000, published 2004).

The nature of series [1]: Chemical stability study: vitamin contents on storage at 20 °C/ambient RH. The series is classed as physicochemical. The following applies: for Degraded / Content after 18 months / Recovery (initial versus nominal): Example 4 syrup; for Degraded: 18 months at 20 °C/ambient RH, '+' = increase; for Recovery (initial versus nominal): two batches; for Initial content: Example 4 vitamin and mineral syrup.

Test in series [2]: as above
The series is classed as physicochemical. As to conditions: Example 1 syrup; for Degraded: 18 months at 20 °C/ambient RH, '+' = increase; for Recovery (initial versus nominal): two batches. The procedure: A stability study was carried out in order to investigate the chemical stability of the liquid multivitamin product. The product was manufactured according to the protocol set out in Example 1. Two production batches were prepared and subjected to a stability study. The following sampling times were used:
20° C./ambient 0, 3, 6, 12 and 18 months Relative Humidity (RH):
The following results for the vitamin contents after 18 months were obtained for the two production batches respectively at 20° C./ambient RH: […]

`[Zn]` [Zinc] yielded a Degraded in series [1] of 1.2%. Also, the “Content after 18 months” value is given as 8.4 mg/5 ml in series [1] (batch 1, 20 °C/ambient RH) and 8.2 mg/5 ml in series [1] (batch 2, 20 °C/ambient RH). In addition, the “Recovery (initial versus nominal)” value in series [1] is listed as 102.5%. For the same molecule, the Initial content in series [1] (batch 1, time 0) is reported as 8.2, 8.2 mg/5 ml; in series [1] (batch 2, time 0) it was 8.2, 8.2 mg/5 ml.

Consider `C=C1CC[C@H](O)C/C1=C/C=C1\CCC[C@]2(C)[C@@H]([C@H](C)CCCC(C)C)CC[C@@H]12` [Cholecalciferol], for which the Degraded result in series [1] was “+2.5%”; in series [2], 10%. For the same molecule, the “Content after 18 months” value in series [1] (batch 1, 20 °C/ambient RH) is 519 IU/5 ml; in series [1] (batch 2, 20 °C/ambient RH) it was 502 IU/5 ml. Further, the figures for the “Recovery (initial versus nominal)” value in series [1] and in series [2] were 92.2% and 97.6%, respectively. Also, the Initial content in series [1] (batch 1, time 0) stood at 502 IU/5 ml; in series [1] (batch 2, time 0), 494 IU/5 ml. In addition, the “Vitamin content after 18 months” value was 7.3, 7.3 μg/10 ml in series [2] (batch 1, 20 °C/ambient RH) and 7.3, 7.3 μg/10 ml in series [2] (batch 2, 20 °C/ambient RH). The Initial vitamin content in series [2] (production batch 1, time 0) turned out to be 8.0 μg/10 ml; in series [2] (production batch 2, time 0), 8.1 μg/10 ml.

For `O=C1O[C@H]([C@@H](O)CO)C(O)=C1O` [Ascorbic acid], the values for the Degraded in series [1] and in series [2] were 32.8% and 20%, respectively. In addition, the “Content after 18 months” value in series [1] (batch 1, 20 °C/ambient RH) is 35.7 mg/5 ml; in series [1] (batch 2, 20 °C/ambient RH) it was 34.9 mg/5 ml. Moreover, the “Recovery (initial versus nominal)” value is reported as 93.8% in series [1] and 97.4% in series [2]. The Initial content in series [1] (batch 1, time 0) turned out to be 53.0 mg/5 ml; in series [1] (batch 2, time 0), 52.0 mg/5 ml. The “Vitamin content after 18 months” value in series [2] (batch 1, 20 °C/ambient RH) stood at 42.8 mg/10 ml; in series [2] (batch 2, 20 °C/ambient RH), 43.6 mg/10 ml. Also, the Initial vitamin content is reported as 54.4 mg/10 ml in series [2] (production batch 1, time 0) and 55.3 mg/10 ml in series [2] (production batch 2, time 0).

With `Cc1cc2nc3c(=O)[nH]c(=O)nc-3n(C[C@H](O)[C@H](O)[C@H](O)CO)c2cc1C` [Riboflavine], the Degraded in series [1] is listed as 4.0%; in series [2], “+2%”. For the same molecule, the “Content after 18 months” value is on record as 1.19, 1.19 mg/5 ml in series [1] (batch 1, 20 °C/ambient RH) and 1.19, 1.19 mg/5 ml in series [1] (batch 2, 20 °C/ambient RH). For the same molecule, the “Recovery (initial versus nominal)” value in series [1] was 93.9%; in series [2] it was 95.9%. Moreover, the Initial content in series [1] (batch 1, time 0) is 1.25 mg/5 ml; in series [1] (batch 2, time 0), 1.23 mg/5 ml. The “Vitamin content after 18 months” value came to 1.08 mg/10 ml in series [2] (batch 1, 20 °C/ambient RH) and 1.09 mg/10 ml in series [2] (batch 2, 20 °C/ambient RH). The Initial vitamin content in series [2] (production batch 1, time 0) is recorded as 1.05 mg/10 ml; in series [2] (production batch 2, time 0) it was 1.06 mg/10 ml.

As for `CC1=C(/C=C/C(C)=C/C=C/C(C)=C/CO)C(C)(C)CCC1` [Retinol], the Degraded in series [1] was found to be 13%; in series [2], 16%. In addition, the “Content after 18 months” value in series [1] (batch 1, 20 °C/ambient RH) came to 1869 IU/5 ml; in series [1] (batch 2, 20 °C/ambient RH), 1862 IU/5 ml. For the same molecule, the “Recovery (initial versus nominal)” value in series [1] was 110.0%; in series [2], 113%. The Initial content in series [1] (batch 1, time 0) was 2145, 2145 IU/5 ml; in series [1] (batch 2, time 0) it was 2145, 2145 IU/5 ml. For the same molecule, the “Vitamin content after 18 months” value in series [2] (batch 1, 20 °C/ambient RH) worked out at 518 μg/10 ml; in series [2] (batch 2, 20 °C/ambient RH), 525 μg/10 ml. For the same molecule, the Initial vitamin content in series [2] (production batch 1, time 0) was 623 μg/10 ml; in series [2] (production batch 2, time 0), 628 μg/10 ml.

Take `Nc1nc2ncc(CNc3ccc(C(=O)N[C@@H](CCC(=O)O)C(=O)O)cc3)nc2c(=O)[nH]1` [Folic acid]: the Degraded was 7.9% in series [1] and 21% in series [2]. Besides, the “Content after 18 months” value was found to be 255 μg/5 ml in series [1] (batch 1, 20 °C/ambient RH) and 244 μg/5 ml in series [1] (batch 2, 20 °C/ambient RH). In addition, the results for the “Recovery (initial versus nominal)” value in series [1] and in series [2] were 96.8% and 102.4%, respectively. In addition, the Initial content is given as 276 μg/5 ml in series [1] (batch 1, time 0) and 266 μg/5 ml in series [1] (batch 2, time 0). Besides, the “Vitamin content after 18 months” value is given as 71.4 μg/10 ml in series [2] (batch 1, 20 °C/ambient RH) and 72.5 μg/10 ml in series [2] (batch 2, 20 °C/ambient RH). Further, the Initial vitamin content in series [2] (production batch 1, time 0) was determined as 92.1 μg/10 ml; in series [2] (production batch 2, time 0), 92.2 μg/10 ml.

On to `Cc1c(C)c2c(c(C)c1O)CC[C@@](C)(CCC[C@H](C)CCC[C@H](C)CCCC(C)C)O2` [D-α-tocopherol], for which the Degraded in series [1] is 4.0%; in series [2], 2%. Moreover, the “Content after 18 months” value worked out at 12.0 IU/5 ml in series [1] (batch 1, 20 °C/ambient RH) and 11.9 IU/5 ml in series [1] (batch 2, 20 °C/ambient RH). Also, the “Recovery (initial versus nominal)” value is 103.8% in series [1] and 99.2% in series [2]. Also, the Initial content in series [1] (batch 1, time 0) is reported as 12.5 IU/5 ml; in series [1] (batch 2, time 0), 12.4 IU/5 ml. Also, the “Vitamin content after 18 months” value in series [2] (batch 1, 20 °C/ambient RH) is given as 6.1 mg/10 ml; in series [2] (batch 2, 20 °C/ambient RH) it was 6.2 mg/10 ml. The Initial vitamin content stood at 6.2 mg/10 ml in series [2] (production batch 1, time 0) and 6.3 mg/10 ml in series [2] (production batch 2, time 0).

On to `Cc1ncc(C[n+]2csc(CCO)c2C)c(N)n1` [Thiamine], for which the Degraded in series [1] is recorded as 7.9%; in series [2] it was 8%. Besides, the “Content after 18 months” value in series [1] (batch 1, 20 °C/ambient RH) is on record as 1.16, 1.16 mg/5 ml; in series [1] (batch 2, 20 °C/ambient RH), 1.16, 1.16 mg/5 ml. For the same molecule, the entries for the “Recovery (initial versus nominal)” value in series [1] and in series [2] were 96.9% and 97.5%, respectively. Further, the Initial content in series [1] (batch 1, time 0) is listed as 1.27 mg/5 ml; in series [1] (batch 2, time 0), 1.25 mg/5 ml. Further, the “Vitamin content after 18 months” value is given as 0.88 mg/10 ml in series [2] (batch 1, 20 °C/ambient RH) and 0.89 mg/10 ml in series [2] (batch 2, 20 °C/ambient RH). Moreover, the Initial vitamin content is on record as 0.96 mg/10 ml in series [2] (production batch 1, time 0) and 0.97 mg/10 ml in series [2] (production batch 2, time 0).

For the molecule `CC(C)(CO)[C@@H](O)C(=O)NCCC(=O)O` [Pantothenic acid], the Degraded came to 11.1% in series [1] and 16% in series [2]. In addition, the “Content after 18 months” value in series [1] (batch 1, 20 °C/ambient RH) is 9.2, 9.2 mg/5 ml; in series [1] (batch 2, 20 °C/ambient RH), 9.2, 9.2 mg/5 ml. In addition, the “Recovery (initial versus nominal)” value was found to be 101.5% in series [1] and 98.9% in series [2]. The Initial content is listed as 10.4 mg/5 ml in series [1] (batch 1, time 0) and 10.3 mg/5 ml in series [1] (batch 2, time 0). For the same molecule, the “Vitamin content after 18 months” value is reported as 3.6, 3.6 mg/10 ml in series [2] (batch 1, 20 °C/ambient RH) and 3.6, 3.6 mg/10 ml in series [2] (batch 2, 20 °C/ambient RH). The Initial vitamin content in series [2] (production batch 1, time 0) is on record as 4.3 mg/10 ml; in series [2] (production batch 2, time 0), 4.4 mg/10 ml.

The molecule Vitamin B12 showed a Degraded in series [1] of 16.7%. The “Content after 18 months” value in series [1] (batch 1, 20 °C/ambient RH) is reported as 9.7 μg/5 ml; in series [1] (batch 2, 20 °C/ambient RH), 9.8 μg/5 ml. In series [1], the “Recovery (initial versus nominal)” value amounted to 104.5%. Moreover, the Initial content in series [1] (batch 1, time 0) is listed as 11.6 μg/5 ml; in series [1] (batch 2, time 0), 11.8 μg/5 ml.

Turning to `Cc1ncc(CO)c(CO)c1O` [Pyridoxine], the results for the Degraded entry in series [1] and in series [2] were “+1.1%” and “+2%”, respectively. The “Content after 18 months” value is listed as 0.89 mg/5 ml in series [1] (batch 1, 20 °C/ambient RH) and 0.88 mg/5 ml in series [1] (batch 2, 20 °C/ambient RH). Further, the “Recovery (initial versus nominal)” value in series [1] was found to be 99.4%; in series [2], 96.4%. Besides, the Initial content in series [1] (batch 1, time 0) amounted to 0.88 mg/5 ml; in series [1] (batch 2, time 0), 0.87 mg/5 ml. The “Vitamin content after 18 months” value in series [2] (batch 1, 20 °C/ambient RH) is 1.25 mg/10 ml; in series [2] (batch 2, 20 °C/ambient RH), 1.24 mg/10 ml. The Initial vitamin content in series [2] (production batch 1, time 0) amounted to 1.21 mg/10 ml; in series [2] (production batch 2, time 0) it was 1.22 mg/10 ml.

For the molecule `O=C(O)CCCC[C@@H]1SC[C@@H]2NC(=O)N[C@@H]21` [Biotin], in series [1], the Degraded is 9.8%. In addition, the “Content after 18 months” value in series [1] (batch 1, 20 °C/ambient RH) is listed as 103 μg/5 ml; in series [1] (batch 2, 20 °C/ambient RH), 100 μg/5 ml. Also, in series [1], the “Recovery (initial versus nominal)” value is listed as 102.3%. Also, the Initial content in series [1] (batch 1, time 0) worked out at 109 μg/5 ml; in series [1] (batch 2, time 0), 116 μg/5 ml.

Take `CC1=C(/C=C/C(C)=C/C=C/C(C)=C/C=C/C=C(C)/C=C/C=C(C)/C=C/C2=C(C)CCCC2(C)C)C(C)(C)CCC1` [Betacaroten]: the Degraded result in series [1] is reported as “+6.3%”. The “Content after 18 months” value in series [1] (batch 1, 20 °C/ambient RH) is reported as 2315 IU/5 ml; in series [1] (batch 2, 20 °C/ambient RH) it was 2279 IU/5 ml. Besides, the “Recovery (initial versus nominal)” value in series [1] turned out to be 110.8%. Also, the Initial content in series [1] (batch 1, time 0) came to 2172 IU/5 ml; in series [1] (batch 2, time 0), 2148 IU/5 ml.

On to `NC(=O)c1cccnc1` [Nicotinamide], for which the Degraded is 4.7% in series [1] and 4% in series [2]. Further, the “Content after 18 months” value in series [1] (batch 1, 20 °C/ambient RH) is on record as 18.5 mg/5 ml; in series [1] (batch 2, 20 °C/ambient RH), 18.4 mg/5 ml. The results for the “Recovery (initial versus nominal)” value in series [1] and in series [2] were 100.8% and 97.2%, respectively. In addition, the Initial content is reported as 19.5 mg/5 ml in series [1] (batch 1, time 0) and 19.2 mg/5 ml in series [1] (batch 2, time 0). The “Vitamin content after 18 months” value was 11.6 mg/10 ml in series [2] (batch 1, 20 °C/ambient RH) and 11.9 mg/10 ml in series [2] (batch 2, 20 °C/ambient RH). Further, the Initial vitamin content in series [2] (production batch 1, time 0) worked out at 12.2 mg/10 ml; in series [2] (production batch 2, time 0) it was 12.3 mg/10 ml.
